Columns and labels:
Type in all cases: functional
NCI-H460 = assay: Cytotoxicity against human NCI-H460 cells assessed as cell growth at 0.01 uM after 48 hrs by sulforhodamine B assay relative to control; details: NCI-H460, 48 h, read-out: Activity
RPMI-8226 [1] = assay: Cytotoxicity against human RPMI8226 cells assessed as cell growth at 0.01 uM after 48 hrs by sulforhodamine B assay relative to control; details: RPMI-8226, 48 h, read-out: Activity
OVCAR-8 [2] = assay: Cytotoxicity against human OVCAR8 cells assessed as growth inhibition after 48 hrs by sulforhodamine B assay; details: OVCAR-8, 48 h
LOX IMVI = assay: Cytotoxicity against human LOXIMVI cells assessed as growth inhibition after 48 hrs by sulforhodamine B assay
786-0 = assay: Cytotoxicity against human 786-0 cells assessed as cell growth at 0.01 uM after 48 hrs by sulforhodamine B assay relative to control; details: 786-0, 48 h, read-out: Activity
A549 = assay: Cytotoxicity against human A549/ATCC cells assessed as cell growth at 0.01 uM after 48 hrs by sulforhodamine B assay relative to control; details: A549, 48 h, read-out: Activity
HT-29 [3] = assay: Cytotoxicity against human HT-29 cells assessed as cell growth at 100 uM after 48 hrs by sulforhodamine B assay relative to control; details: HT-29, 48 h, read-out: Activity
RPMI-8226 [4] = assay: Cytotoxicity against human RPMI8226 cells assessed as cell growth at 10 uM after 48 hrs by sulforhodamine B assay relative to control; details: RPMI-8226, 48 h, read-out: Activity
HT-29 [5] = assay: Cytotoxicity against human HT-29 cells assessed as cell growth at 0.1 uM after 48 hrs by sulforhodamine B assay relative to control; details: HT-29, 48 h, read-out: Activity
MDA-MB-435 = assay: Cytotoxicity against human MDA-MB-435 cells assessed as cell growth at 0.01 uM after 48 hrs by sulforhodamine B assay relative to control; details: MDA-MB-435, 48 h, read-out: Activity
IGROV-1 = assay: Cytotoxicity against human IGROV1 cells assessed as cell growth at 0.01 uM after 48 hrs by sulforhodamine B assay relative to control; details: IGROV-1, 48 h, read-out: Activity
A498 = assay: Cytotoxicity against human A498 cells assessed as cell growth at 0.01 uM after 48 hrs by sulforhodamine B assay relative to control; details: A498, 48 h, read-out: Activity
HT-29 [6] = assay: Cytotoxicity against human HT-29 cells assessed as growth inhibition after 48 hrs by sulforhodamine B assay; details: HT-29, 48 h
OVCAR-8 [7] = assay: Cytotoxicity against human OVCAR8 cells assessed as cell growth at 0.1 uM after 48 hrs by sulforhodamine B assay relative to control; details: OVCAR-8, 48 h, read-out: Activity
PC-3 = assay: Cytotoxicity against human PC3 cells assessed as cell growth at 1 uM after 48 hrs by sulforhodamine B assay relative to control; details: PC-3, 48 h, read-out: Activity
Malme-3M = assay: Cytotoxicity against human MALME-3M cells assessed as cell growth at 0.01 uM after 48 hrs by sulforhodamine B assay relative to control; details: read-out: Activity
T47D = assay: Cytotoxicity against human T47D cells assessed as cell growth at 0.01 uM after 48 hrs by sulforhodamine B assay relative to control; details: read-out: Activity
SK-OV-3 = assay: Cytotoxicity against human SKOV3 cells assessed as cell growth at 0.01 uM after 48 hrs by sulforhodamine B assay relative to control; details: SK-OV-3, 48 h, read-out: Activity
RXF 393 [8] = assay: Cytotoxicity against human RXF393 cells assessed as cell growth at 1 uM after 48 hrs by sulforhodamine B assay relative to control; details: RXF 393, 48 h, read-out: Activity
U-251 = assay: Cytotoxicity against human U251 cells assessed as cell growth at 0.1 uM after 48 hrs by sulforhodamine B assay relative to control; details: U-251, 48 h, read-out: Activity
NCI-H322M [9] = assay: Cytotoxicity against human NCI-H322M cells assessed as cell growth at 1 uM after 48 hrs by sulforhodamine B assay relative to control; details: read-out: Activity
ACHN = assay: Cytotoxicity against human ACHN cells assessed as cell growth at 100 uM after 48 hrs by sulforhodamine B assay relative to control; details: read-out: Activity
UACC-62 = assay: Cytotoxicity against human UACC62 cells assessed as cell growth at 0.01 uM after 48 hrs by sulforhodamine B assay relative to control; details: UACC-62, 48 h, read-out: Activity
OVCAR-8 [10] = assay: Cytotoxicity against human OVCAR8 cells assessed as cell growth at 10 uM after 48 hrs by sulforhodamine B assay relative to control; details: OVCAR-8, 48 h, read-out: Activity
MOLT-4 = assay: Cytotoxicity against human MOLT4 cells assessed as cell growth at 0.1 uM after 48 hrs by sulforhodamine B assay relative to control; details: MOLT-4, 48 h, read-out: Activity
SF-268 = assay: Cytotoxicity against human SF268 cells assessed as cell growth at 100 uM after 48 hrs by sulforhodamine B assay relative to control; details: SF-268, 48 h, read-out: Activity
RXF 393 [11] = assay: Cytotoxicity against human RXF393 cells assessed as cell growth at 0.01 uM after 48 hrs by sulforhodamine B assay relative to control; details: RXF 393, 48 h, read-out: Activity
HCT-116 = assay: Cytotoxicity against human HCT116 cells assessed as cell growth at 1 uM after 48 hrs by sulforhodamine B assay relative to control; details: HCT-116, 48 h, read-out: Activity
NCI/ADR-RES = assay: Cytotoxicity against human NCI/ADR-RES cells assessed as cell growth at 10 uM after 48 hrs by sulforhodamine B assay relative to control; details: read-out: Activity
SK-MEL-2 = assay: Cytotoxicity against human SK-MEL-2 cells assessed as growth inhibition after 48 hrs by sulforhodamine B assay; details: SK-MEL-2, 48 h
NCI-H322M [12] = assay: Cytotoxicity against human NCI-H322M cells assessed as cell growth at 100 uM after 48 hrs by sulforhodamine B assay relative to control; details: read-out: Activity
SF-539 = assay: Cytotoxicity against human SF539 cells assessed as cell growth at 0.01 uM after 48 hrs by sulforhodamine B assay relative to control; details: SF-539, 48 h, read-out: Activity
MCF7 = assay: Cytotoxicity against human MCF7 cells assessed as cell growth at 10 uM after 48 hrs by sulforhodamine B assay relative to control; details: MCF7, 48 h, read-out: Activity
NCI-H226 = assay: Cytotoxicity against human NCI-H226 cells assessed as cell growth at 0.1 uM after 48 hrs by sulforhodamine B assay relative to control; details: NCI-H226, 48 h, read-out: Activity
UACC-257 = assay: Cytotoxicity against human UACC257 cells assessed as cell growth at 100 uM after 48 hrs by sulforhodamine B assay relative to control; details: UACC-257, 48 h, read-out: Activity
HT-29 [13] = assay: Cytotoxicity against human HT-29 cells assessed as cell growth at 0.01 uM after 48 hrs by sulforhodamine B assay relative to control; details: HT-29, 48 h, read-out: Activity

Structure (SMILES): COc1ccc(C(=O)/C=C/c2cc(-c3cc(OC)c(OC)c(OC)c3)n[nH]2)cc1OC
- growth at 0.01 µM (NCI-H460): 103%
- growth at 0.01 µM (RPMI-8226 [1]): 94%
- LC50 (OVCAR-8 [2]): 5.64 µM
- TGI (OVCAR-8 [2]): 2.73 µM
- LC50 (LOX IMVI): 5.53 µM
- TGI (LOX IMVI): 2.76 µM
- growth at 0.01 µM (786-0): 96%
- growth at 0.01 µM (A549): 98%
- growth at 100 µM (HT-29 [3]): -81%
- growth at 10 µM (RPMI-8226 [4]): -50%
- growth at 0.1 µM (HT-29 [5]): 105%
- growth at 0.01 µM (MDA-MB-435): 95%
- growth at 0.01 µM (IGROV-1): 98%
- growth at 0.01 µM (A498): 97%
- LC50 (HT-29 [6]): 5.75 µM
- TGI (HT-29 [6]): 3.05 µM
- growth at 0.1 µM (OVCAR-8 [7]): 92%
- growth at 1 µM (PC-3): 71%
- growth at 0.01 µM (Malme-3M): 95%
- growth at 0.01 µM (T47D): 93%
- growth at 0.01 µM (SK-OV-3): 100%
- growth at 1 µM (RXF 393 [8]): 72%
- growth at 0.1 µM (U-251): 95%
- growth at 1 µM (NCI-H322M [9]): 83%
- growth at 100 µM (ACHN): -91%
- growth at 0.01 µM (UACC-62): 98%
- growth at 10 µM (OVCAR-8 [10]): -89%
- growth at 0.1 µM (MOLT-4): 98%
- growth at 100 µM (SF-268): -88%
- growth at 0.01 µM (RXF 393 [11]): 100%
- growth at 1 µM (HCT-116): 47%
- growth at 10 µM (NCI/ADR-RES): 10%
- LC50 (concentration killing 50% of cells) (SK-MEL-2): 6.68 µM
- TGI (SK-MEL-2): 3.51 µM
- growth at 100 µM (NCI-H322M [12]): -90%
- growth at 0.01 µM (SF-539): 97%
- growth at 10 µM (MCF7): -76%
- growth at 0.1 µM (NCI-H226): 97%
- growth at 100 µM (UACC-257): -97%
- growth at 0.01 µM (HT-29 [13]): 100%

Structure (SMILES): COc1cc(-c2cc(/C=C/C(=O)c3ccc4c(c3)OCO4)[nH]n2)cc(OC)c1OC
- growth at 0.01 µM (NCI-H460): 104%
- growth at 0.01 µM (RPMI-8226 [1]): 92%
- LC50 (OVCAR-8 [2]): > 100 µM
- TGI (OVCAR-8 [2]): 11.1 µM
- LC50 (LOX IMVI): 7.83 µM
- TGI (LOX IMVI): 3.78 µM
- growth at 0.01 µM (786-0): 96%
- growth at 0.01 µM (A549): 101%
- growth at 100 µM (HT-29 [3]): -73%
- growth at 10 µM (RPMI-8226 [4]): -41%
- growth at 0.1 µM (HT-29 [5]): 100%
- growth at 0.01 µM (MDA-MB-435): 96%
- growth at 0.01 µM (IGROV-1): 98%
- growth at 0.01 µM (A498): 89%
- LC50 (HT-29 [6]): 9.48 µM
- TGI (HT-29 [6]): 4.55 µM
- growth at 0.1 µM (OVCAR-8 [7]): 99%
- growth at 1 µM (PC-3): 86%
- growth at 0.01 µM (Malme-3M): 93%
- growth at 0.01 µM (T47D): 100%
- growth at 0.01 µM (SK-OV-3): 103%
- growth at 1 µM (RXF 393 [8]): 80%
- growth at 0.1 µM (U-251): 95%
- growth at 1 µM (NCI-H322M [9]): 93%
- growth at 100 µM (ACHN): -69%
- growth at 0.01 µM (UACC-62): 98%
- growth at 10 µM (OVCAR-8 [10]): 2%
- growth at 0.1 µM (MOLT-4): 103%
- growth at 100 µM (SF-268): -26%
- growth at 0.01 µM (RXF 393 [11]): 95%
- growth at 1 µM (HCT-116): 90%
- growth at 10 µM (NCI/ADR-RES): 23%
- LC50 (concentration killing 50% of cells) (SK-MEL-2): 81.3 µM
- TGI (SK-MEL-2): 28.9 µM
- growth at 100 µM (NCI-H322M [12]): -9%
- growth at 0.01 µM (SF-539): 98%
- growth at 10 µM (MCF7): -1%
- growth at 0.1 µM (NCI-H226): 98%
- growth at 100 µM (UACC-257): -1%
- growth at 0.01 µM (HT-29 [13]): 99%

Structure (SMILES): COc1ccc(-c2cc(/C=C/C(=O)c3cc(OC)c(OC)c(OC)c3)[nH]n2)cc1OC
- growth at 0.01 µM (NCI-H460): 100%
- growth at 0.01 µM (RPMI-8226 [1]): 97%
- GI50 (OVCAR-8 [2]): 2.55 µM
- LC50 (OVCAR-8 [2]): 42.1 µM
- TGI (OVCAR-8 [2]): 11.7 µM
- GI50 (LOX IMVI): 1.46 µM
- LC50 (LOX IMVI): 5.7 µM
- TGI (LOX IMVI): 2.88 µM
- growth at 0.01 µM (786-0): 100%
- growth at 0.01 µM (A549): 101%
- growth at 100 µM (HT-29 [3]): -66%
- growth at 10 µM (RPMI-8226 [4]): -38%
- growth at 0.1 µM (HT-29 [5]): 99%
- growth at 0.01 µM (MDA-MB-435): 98%
- growth at 0.01 µM (IGROV-1): 103%
- growth at 0.01 µM (A498): 99%
- GI50 (HT-29 [6]): 1.3 µM
- LC50 (HT-29 [6]): 5.75 µM
- TGI (HT-29 [6]): 2.73 µM
- growth at 0.1 µM (OVCAR-8 [7]): 100%
- growth at 1 µM (PC-3): 71%
- growth at 0.01 µM (Malme-3M): 98%
- growth at 0.01 µM (T47D): 91%
- growth at 0.01 µM (SK-OV-3): 97%
- growth at 1 µM (RXF 393 [8]): 80%
- growth at 0.1 µM (U-251): 92%
- growth at 1 µM (NCI-H322M [9]): 82%
- growth at 100 µM (ACHN): -84%
- growth at 0.01 µM (UACC-62): 96%
- growth at 10 µM (OVCAR-8 [10]): 6%
- growth at 0.1 µM (MOLT-4): 95%
- growth at 100 µM (SF-268): -72%
- growth at 0.01 µM (RXF 393 [11]): 103%
- growth at 1 µM (HCT-116): 27%
- growth at 10 µM (NCI/ADR-RES): 9%
- GI50 (SK-MEL-2): 2.69 µM
- LC50 (concentration killing 50% of cells) (SK-MEL-2): 29.5 µM
- TGI (SK-MEL-2): 7.7 µM
- growth at 100 µM (NCI-H322M [12]): -91%
- growth at 0.01 µM (SF-539): 95%
- growth at 10 µM (MCF7): -81%
- growth at 0.1 µM (NCI-H226): 90%
- growth at 100 µM (UACC-257): -94%
- growth at 0.01 µM (HT-29 [13]): 101%
